# Laboratory results taken from patent publication US20100099663A1, “4-TRIFLUOROMETHOXYPHENOXYBENZOL-4'-SULFONIC ACIDS, METHOD FOR THE PRODUCTION AND USE THEREOF IN MEDICAMENTS” (SANOFI-AVENTIS DEUTSCHLAND GMBH, priority 2004, published 2010).
# Experiments:
# [1] = target: T1, catalytic domain of neutrophil collagenase (MMP-8) (Homo sapiens, UniProt P22894); test: Enzymatic activity of the catalytic domain of neutrophil collagenase (MMP-8), fluorogenic substrate; format: biochemical; conditions: pH 7.5, 15 min preincubation, read-out: Matrix metalloproteinase inhibition MMP-8 (IC50)
# T1 construct: Catalytic Domain of Human Stromelysin (MMP-3) and of Neutrophil Collagenase (MMP-8); made in house
# T1 sequence (P22894 100-262 limits assumed): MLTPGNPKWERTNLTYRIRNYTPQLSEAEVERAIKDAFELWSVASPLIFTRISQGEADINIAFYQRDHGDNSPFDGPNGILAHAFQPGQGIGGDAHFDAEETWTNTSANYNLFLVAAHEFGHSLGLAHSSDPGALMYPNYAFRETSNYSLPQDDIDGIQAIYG
# Procedure: (§1) Preparation and Determination of the Enzymatic Activity of the Catalytic Domain of Human Stromelysin (MMP-3) and of Neutrophil Collagenase (MMP-8).
# (§2) The two enzymes stromelysin (MMP-3) and neutrophil collagenase (MMP-8) were prepared by the method of Ye et al. (Biochemistry; 31 (1992) pages 11231-11235). The enzymic activity or the effect of the enzyme inhibitor was measured by incubating 10 μl of enzyme solution with 10 μl of a 3% strength (v/v) buffered dimethyl sulfoxide solution which contained the enzyme inhibitor where appropriate, for 15 minutes. After addition of 10 μl of a 3% strength (v/v) aqueous dimethyl sulfoxide solution which contained 1 mmol/l of the substrate, the enzymic reaction was followed by fluorescence spectroscopy (328 nm (ex)/393 nm(em)).
# (§3) The enzymic activity is presented as increase in extinction/minute. The IC50 values listed in Table 1 were determined as the inhibitor concentrations leading in each case to 50% inhibition of the enzyme.
# (§4) The buffer solution contained 0.05% Brij (Sigma, Deisenhofen, Germany) and 0.1 mol/l of Tris/HCl, 0.1 mol/l of NaCl, 0.01 mol/l of CaCl2 and 0.1 mol/l of piperazine-N,N′-bis[2-ethanesulfonic acid] (pH=7.5).
# (§5) The MMP-3 enzyme solution contained 2.3 μg/ml and the MMP-8 enzyme solution 0.6 μg/ml of one of the enzyme domains prepared by the method of Ye et al. The substrate solution contained 1 mmol/l of the fluorogenic substrate (7-methoxycoumarin-4-yl)acetyl-Pro-Leu-Gly-Leu-3-(2′,4′-dinitrophenyl)-L-2,3-diaminopropionyl-Ala-Arg-NH2 (Bachem, Heidelberg, Germany).
# [2] = target: T2, catalytic domain of human collagenase-3 (MMP-13) (Homo sapiens, UniProt P45452); test: Enzymatic activity of the catalytic domain of human collagenase-3 (MMP-13), fluorogenic substrate; format: biochemical; conditions: APMA-activated proenzyme, pH 7.5, read-out: Matrix metalloproteinase inhibition MMP-13 (IC50)
# T2 construct: Determination of the Enzymatic Activity of the Catalytic Domain of Human Collagenase-3 (MMP-13); purchased INVITEK, Berlin 30 100 803
# Procedure: Determination of the Enzymatic Activity of the Catalytic Domain of Human Collagenase-3 (MMP-13).
# Activation of the proenzyme:
# 2 parts by volume of proenzyme were incubated with 1 part by volume of APMA solution at 37° C. for 1.5 hours. The APMA solution was prepared from a 10 mmol/l p-aminophenylmercuric acetate solution in 0.1 mmol/l NaOH by dilution with 3 parts by volume of Tris/HCl buffer pH 7.5 (see below). The pH was adjusted to between 7.0 and 7.5 by adding 1 mmol/l HCl. After activation of the enzyme it was diluted with the Tris/HCl buffer to a concentration of 1.67 μg/ml.
# The enzymic activity was measured by incubating 10 μl of enzyme solution with 10 μl of a 3% strength (v/v) buffered dimethyl sulfoxide solution (reaction 1) for 15 minutes. The enzyme inhibitor activity was measured by incubating 10 μl of enzyme solution with 10 μl of a 3% strength (v/v) buffered dimethyl sulfoxide solution which contained the enzyme inhibitor (reaction 2).
# The enzymic reaction both in the case of reaction 1 and in the case of reaction 2 was followed after addition of 10 μl of a 3% strength (v/v) aqueous dimethyl sulfoxide solution which contains 0.075 mmol/l of the substrate by fluorescence spectroscopy (328 nm (extinction)/393 nm (emission)).
# The enzymic activity has been presented as increase in extinction/minute. The effect of the inhibitor was calculated as percentage inhibition by the following formula:
# % inhibition=100−[(increase in extinction/minute in reaction 2)/(increase in extinction/minute in reaction 1)×100].
# The IC50, which is the concentration of inhibitor which is necessary for 50% inhibition of the enzymic activity, was determined graphically by plotting the percentage inhibitions at various inhibitor concentrations.
# The buffer solution contained 0.05% Brij (Sigma, Deisenhofen, Germany) and 0.1 mol/l of Tris/HCl, 0.1 mol/l of NaCl, 0.01 mol/l of CaCl2 (pH=7.5).
# The enzyme solution contained 1.67 μg/ml of the enzyme domain. The substrate solution contained 0.075 mmol/l of the fluorogenic substrate (7-methoxycoumarin-4-yl)acetyl-Pro-Leu-Gly-Leu-3-(2′,4′-dinitrophenyl)-L-2,3-diaminopropionyl-Ala-Arg-NH2 (Bachem, Heidelberg, Germany).
# [3] = target: T3, catalytic domain of human stromelysin (MMP-3) (Homo sapiens, UniProt P08254); test: Enzymatic activity of the catalytic domain of human stromelysin (MMP-3), fluorogenic substrate; format: biochemical; conditions: pH 7.5, 15 min preincubation, read-out: Matrix metalloproteinase inhibition MMP-3 (IC50)
# T3 construct: Enzymatic Activity of the Catalytic Domain of Human Stromelysin (MMP-3); made in house
# T3 sequence (P08254 100-272 limits assumed): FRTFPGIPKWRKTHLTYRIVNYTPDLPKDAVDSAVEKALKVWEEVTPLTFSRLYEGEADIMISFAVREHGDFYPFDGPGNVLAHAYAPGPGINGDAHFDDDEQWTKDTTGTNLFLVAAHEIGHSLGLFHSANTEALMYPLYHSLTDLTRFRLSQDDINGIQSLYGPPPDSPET
# Procedure: as §1, §2, §3, §4, §5
# [4] = Pharmacokinetic measurements in mice after oral administration (n-in-one study); format: in vivo; conditions: male C57/BL mice, oral by gavage about 7.5 mg per kg in PEG400/water 1:1, n-in-one, plasma
# Procedure: In each case 14 or 16 male C57/BL mice with an average weight of 20 to 28 g were used for the investigation, and divided into two groups. The animals had free access to feed and water. The substances were dissolved in PEG400/water 1:1 and administered orally by gavage in a concentration of about 7.5 mg per kg (equivalent to about […] per animal). In each case, 2 novel compounds and one comparative compound were previously dissolved separately, mixed and administered simultaneously (n-in-one study). Blood samples were taken after 0.25, 0.5, 1, 2, 4, 6, 8 and 24 h, and the substance concentration was determined quantitatively by HPLC-MS under standardized conditions as described below. The individual results were initially combined within the two groups and then the average was formed therefrom. The pharmacokinetic parameters are calculated using the noncompartmental model (extravascular input).
# Quantification took place by HPLC-MS-MS. An HPLC system from Agilent (1100) was used, coupled to a PE-Sciex API 4000 (triple quadruple mass spectrometer). The column used was a ProdigyR 5μ ODS, flow rate […], injected volumes 16 μl. Eluent: acetonitrile-0.002% ammonium formate. Detection took place in MS/MS mode (multiple reaction monitoring) focussed on Q1 and selective masses (fragment) filtration on Q3.
# Workup of the plasma samples beforehand took place as follows: admixture of 25 μl of 60/40 acetonitrile/0.1% formate plus 25 μl of internal standard 5 μg/ml in the same solvent, plus 25 μl of blank plasma or sample plasma, plus 200 μl of acetonitrile. Mixing for 5 min was followed by centrifugation (3 min, 5000 g) and then pipetting of 200 μl into the measurement vessels.
# Cmax is the maximum plasma concentration reached at one of the sampling times. AUC “area under the curve”, time course of the decrease in concentration and Cmax determine the magnitude of the value.
IC50 [1] [nM],IC50 [2] [nM],IC50 [3] [nM],AUC [4] [ng·h/mL],Cmax [4] [ng/mL],t½ [4] [h],Molecule
14,4,69,–,–,–,"O=C(NO)C1C2CCCCC2CCN1S(=O)(=O)c1ccc(Oc2ccc(OC(F)(F)F)cc2)cc1 (stereo not drawn) [Example 4, 2-[4-(4-Trifluoromethoxyphenoxy)benzenesulfonyl]decahydroisoquinoline-1-(N-hydroxy)carboxamide]"
4,2,24,–,–,–,"O=C(NO)C1C2CCCCC2CCCN1S(=O)(=O)c1ccc(Oc2ccc(OC(F)(F)F)cc2)cc1 (stereo not drawn) [Example 7, 2-[4-(4-Trifluoromethoxyphenoxy)benzenesulfonyl]decahydrobenzo[c]azepine-1-(N-hydroxy)carboxamide]"
3.6,2,28,2230,1350,6.6,"O=C(NO)C1c2ccccc2CCN1S(=O)(=O)c1ccc(Oc2ccc(OC(F)(F)F)cc2)cc1 (stereo not drawn) [Example 3, 2-[4-[4-Trifluoromethoxyphenoxy)benzenesulfonyl]-1,2,3,4-tetrahydroisoquinoline-1-(N-hydroxy)carboxamide]"
2.3,2.2,23,250,450,1.5,"COc1ccc(Oc2ccc(S(=O)(=O)N3CCc4ccccc4C3C(=O)NO)cc2)cc1 (stereo not drawn) [Example 9, 2-[4-(4-Methoxyphenoxy)benzenesulfonyl]-1,2,3,4-tetrahydroisoquinoline-1-N-hydroxycarboxamide, reference compound]"
–,–,–,160,240,1.8,"O=C(O)C1c2ccccc2CCN1S(=O)(=O)c1ccc(Oc2ccc(OC(F)(F)F)cc2)cc1 (stereo not drawn) [Example 10, 2-[4-(4-Trifluorophenoxy)benzenesulfonyl]-1,2,3,4-tetrahydroisoquinoline-1-carboxylic acid]"
4,2,24,–,–,–,"O=C(NO)C1C2CCOC2CCN1S(=O)(=O)c1ccc(Oc2ccc(OC(F)(F)F)cc2)cc1 (stereo not drawn) [Example 6, 5-[4-(4-Trifluoromethoxyphenoxy)benzenesulfonyl]octahydrofuro[3,2-c]pyridine-4-(N-hydroxy)carboxamide]"

Molecule,IC50 [1] [nM],IC50 [2] [nM],IC50 [3] [nM],AUC [4] [ng·h/mL],Cmax [4] [ng/mL],t½ [4] [h]
"5-[4-(4-Trifluoromethoxyphenoxy)benzenesulfonyl]octahydrofuro[3,2-c]pyridine-4-carboxylic acid [Example 5]",210,240,380,–,–,–
